Target: T1, uterine OT receptors (Rattus norvegicus, UniProt P70536)
T1 construct: from tissue; host or cells: uterus of DES-treated rats, crude membrane preparation
T1 sequence (P70536 1-388): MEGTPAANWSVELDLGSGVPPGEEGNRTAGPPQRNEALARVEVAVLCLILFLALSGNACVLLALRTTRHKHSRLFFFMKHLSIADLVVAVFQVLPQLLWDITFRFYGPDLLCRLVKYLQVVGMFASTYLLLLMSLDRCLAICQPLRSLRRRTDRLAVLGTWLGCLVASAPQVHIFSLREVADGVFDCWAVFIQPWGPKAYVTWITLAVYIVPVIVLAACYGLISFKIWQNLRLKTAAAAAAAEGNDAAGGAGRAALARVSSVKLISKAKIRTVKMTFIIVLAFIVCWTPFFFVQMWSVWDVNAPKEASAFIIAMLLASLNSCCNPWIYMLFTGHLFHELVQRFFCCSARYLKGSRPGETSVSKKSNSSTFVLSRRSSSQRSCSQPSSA
Assay: [3H]Oxytocin radioligand binding assay, crude uterine membrane preparation
Set-up: species or system rats
Settings: for inhibition at 1 µM: at 1,000 nM compound; for IC50: competition with 1 nM [3H]OT, 60 minutes, 22 °C, membranes of uteri from DES-treated rats; for inhibition at 10 µM: at 10,000 nM compound

[1] = 1 nM [3H]OT, rat uterine membranes

Experimental: Oxytocin (OT)([tyrosyl, 3,5-[^3H]OT; 30-60 Ci/mmol; New England Nuclear. Boston, MA) to uterine OT receptors was based on an assay*using a crude membrane preparation of uteri taken from diethylstilbestrol dipropionate (DES)-treated (0.3 mg/kg, ip; 18-24) rats. Competetion studies were conducted at equilibrium (60 minutes; 22 °C) using 1 nM[^3H]OT in the following assay buffer: 50 mM Tris-HCI, 5 mM MgCl2, and 0.1% BSA, pH 7.4. Nonspecific binding (10% of the total binding) was determined using 1µM unlabeled OT and the binding reaction was terminated by filtration through glass fiber filters using a cell harvester (model 7019, Skatron, Inc., Sterling, VA).

Row | IC50 | SMILES | other results
1 |  | Cc1ccccc1N1CCN(S(=O)(=O)CC23CCC(CC2(O)CNCC(C)C)C3(C)C)CC1 (stereo not drawn) [Example 19, 1-((7,7-DIMETHYL-2-EXO-HYDROXY-2-ENDO-ISOBUTYLAMINOMETHYL-BICYCLO(2.2.1 )HEPTAN-1-YL)-METHANESULFONYL)-4-(2-METHYLPHENYL)PIPERAZINE] | inhibition at 1 µM [1]: 31%
2 |  | COC(=O)C1=CC2CCC1(CS(=O)(=O)N1CCN(c3ccccc3C)CC1)C2(C)C (stereo not shown) [Example 20, 1-((7,7-DIMETHYL-2-METHOXYCARBONYL-BICYCLO (2.2.1)HEPT-2-EN-1-YL)METHANESULFONYL)-4-(2-METHYLPHENYL)PIPERAZINE] | inhibition at 1 µM [1]: 72%
3 |  | Cc1ccccc1N1CCN(S(=O)(=O)CC23CCC(C=C2C(=O)O)C3(C)C)CC1 (stereo not shown) [Example 21, 1-((7,7-DIMETHYL-2-CARBOXY-BICYCLO(2.2.1) HEPT-2-EN-1 -YL)METHANESULFONYL)-4-(2-METHYLPHENYL)PIPERAZINE] | inhibition at 1 µM [1]: 38%
4 |  | Cc1ccccc1N1CCN(S(=O)(=O)CC23CCC(C=C2C(=O)NCCc2c[nH]cn2)C3(C)C)CC1 (stereo not shown) [Example 22, 1-((7,7-DIMETHYL-2-(4-IMIDAZOLYL)ETHYLAMINOCARBONYL-BICYCLO(2.2.1 )HEPT-2-EN-1-YL)-METHANESULFONYL)-4-(2-METHYLPHENYL)PIPERAZINE] | inhibition at 1 µM [1]: 78%
5 | 35 nM | COC(=O)C1CC(=O)N(CC(C)C2(O)CC3CCC2(CS(=O)(=O)N2CCN(c4ccccc4C)CC2)C3(C)C)C1 (stereo not shown) [Example 26] | 
6 |  | Cc1ccccc1N1CCN(S(=O)(=O)CC23CCC(CC2=O)C3(C)C)CC1=O (stereo not shown) [Example 30] | inhibition at 10 µM [1]: 16%
7 |  | Cc1ccccc1N1CCN(S(=O)(=O)CC23CCC(CC2=O)C3(C)C)C(C)C1=O (stereo not shown) [Example 31] | inhibition at 10 µM [1]: 5%
8 |  | Cc1ccccc1N1CCN(S(=O)(=O)CC23CCC(CC2O)C3(C)C)C(C)C1 (stereo not shown) [Example 32] | inhibition at 1 µM [1]: 37%
9 | 7.7 nM | Cc1ccccc1N1CCN(S(=O)(=O)CC23CCC(CC2NC(=O)[C@@H](N)CCS(C)(=O)=O)C3(C)C)CC1=O (stereo partly drawn) [Example 36, 1-((7,7-DIMETHYL-2-ENDO-(2S-AMINO-4-(METHYLSULFONYL)BUTYRAMIDO)-BICYCLO(2.2.1 )HEPTAN-1-YL)METHANESULFONYL)-4-(2-METHYLPHENYL)-3-PIPERAZINONE] | 
10 |  | Cc1ccccc1N1CCN(S(=O)(=O)CC23CCC(CC2NC(=O)OCc2ccccc2)C3(C)C)CC1 (stereo not shown) [Example 39] | inhibition at 1 µM [1]: 54%
11 |  | Cc1ccccc1N1CCN(S(=O)(=O)CC23CCC(CC2N(C)C(=O)OCc2ccccc2)C3(C)C)CC1 (stereo not shown) [Example 40] | inhibition at 1 µM [1]: 35%
12 | 110 nM | Cc1ccccc1N1CCN(S(=O)(=O)CC23CCC(CC2NC(=O)Cc2c[nH]cn2)C3(C)C)CC1 (stereo not shown) [Example 43] | 
13 | 180 nM | Cc1ccccc1N1CCN(S(=O)(=O)CC23CCC(CC2NC(=O)C(C)c2c[nH]cn2)C3(C)C)CC1 (stereo not drawn) [Example 44, 1-((7,7-DIMETHYL-2-ENDO-(2-(4-IMIDAZOLYL)PROPANOYL)AMINO-BICYCLO(2.2.1 )HEPTAN-1-YL)-METHANESULFONYL)-4-(2-METHYLPHENYL)-3-PIPERAZINE] | 
14 | 12 nM | COC(=O)CCN1CCCC1C(=O)NCC(C)C1(O)CC2CCC1(CS(=O)(=O)N1CCN(c3ccccc3C)CC1)C2(C)C (stereo not shown) [Example 45] | 
15 | 20 nM | Cc1ccccc1N1CCN(S(=O)(=O)CC23CCC(CC2(O)C(C)CNC(=O)C2CCCN2CCC(=O)O)C3(C)C)CC1 (stereo not shown) [Example 46] | 
16 | 15 nM | Cc1ccccc1N1CCN(S(=O)(=O)CC23CCC(CC2(O)C(C)CNC(=O)C2CCCNC2)C3(C)C)CC1 (stereo not drawn) [Example 47, 1-((7,7-DIMETHYL-2-EXO-HYDROXY-2-ENDO-2-(1-(3-PIPERIDINYLCARBONYL)AMINO)PROPYL-BICYCLO-(2.2.1)HEPTAN-1-YL) METHANESULFONYL)-4-(2-METHYLPHENYL)PIPERAZINE] | 
17 | 30 nM | COC(=O)CCN1CCCC(C(=O)NCC(C)C2(O)CC3CCC2(CS(=O)(=O)N2CCN(c4ccccc4C)CC2)C3(C)C)C1 (stereo not shown) [Example 48] | 
18 | 25 nM | Cc1ccccc1N1CCN(S(=O)(=O)CC23CCC(CC2(O)C(C)CNC(=O)C2CCCN(CCC(=O)O)C2)C3(C)C)CC1 (stereo not drawn) [Example 49, 1-((7,7-DIMETHYL-2-EXO-HYDROXY-2-ENDO-2-(1-(3-(1-CARBOXYETHYL)PIPERIDINYLCARBONYL)-AMINO)PROPYL-BICYCLO-(2.2.1)HEPTAN-1-YL)METHANESULFONYL)-4-(2-METHYLPHENYL) PIPERAZINE] | 
19 | 38 nM | Cc1ccccc1N1CCN(S(=O)(=O)CC23CCC(CC2(O)C(C)CNC(=O)C2CCCN(CC(=O)O)C2)C3(C)C)CC1 (stereo not shown) [Example 51] | 
20 | 28 nM | Cc1ccccc1N1CCN(S(=O)(=O)CC23CCC(CC2(O)C(C)CNC(=O)C2CCCN2CC(=O)O)C3(C)C)CC1 (stereo not shown) [Example 53] | 
21 | 14 nM | Cc1ccccc1N1CCN(S(=O)(=O)CC23CCC(CC2(O)C(C)CNC(=O)C2CCNCC2)C3(C)C)CC1 (stereo not shown) [Example 54] | 
22 | 30 nM | COC(=O)CCN1CCC(C(=O)NCC(C)C2(O)CC3CCC2(CS(=O)(=O)N2CCN(c4ccccc4C)CC2)C3(C)C)CC1 (stereo not shown) [Example 55] | 
23 | 54 nM | Cc1ccccc1N1CCN(S(=O)(=O)CC23CCC(CC2(O)C(C)CNC(=O)C2CCN(CCC(=O)O)CC2)C3(C)C)CC1 (stereo not drawn) [Example 56, 1-((7,7-DIMETHYL-2-EXO-HYDROXY-2-ENDO-2-(1-(4-(1-CARBOXYETHYL)PIPERIDINYLCARBONYL)-AMINO)PROPYL-BICYCLO-(2.2.1)HEPTAN-1-YL)METHANESULFONYL)-4-(2-METHYLPHENYL) PIPERAZINE] | 
24 |  | CCOC(=O)CN1CCCC(C(=O)NC(C)CC2(O)CC3CCC2(CS(=O)(=O)N2CCN(c4ccccc4C)CC2)C3(C)C)C1 (stereo not shown) [Example 57] | inhibition at 100 nM (at 100 nM compound, 1 nM [3H]OT, rat uterine membranes): 66% inhibition at 100 nM
25 | 56 nM | Cc1ccccc1N1CCN(S(=O)(=O)CC23CCC(CC2(O)C(C)CNC(=O)C2CCN(CC(=O)O)CC2)C3(C)C)CC1 (stereo not drawn) [Example 58, 1-((7,7-DIMETHYL-2-EXO-HYDROXY-2-ENDO-2-(1-(4-(1-CARBOXYMETHYL)PIPERIDINYLCARBONYL)-AMINO)PROPYL-BICYCLO (2.2.1)HEPTAN-1-YL)METHANESULFONYL)-4-(2-METHYLPHENYL) PIPERAZINE] | 

From patent publication EP0533240A2, “Substituted amine derivatives of piperazinylcamphorsulfonyl oxytocin antagonists” (MERCK & CO. INC., priority 1991, dated 1993)
